One may read the GI50 as the concentration that inhibits growth by half. As usually defined, the IC50 is the concentration that inhibits the measured activity by half.

The structures appear in SMILES notation. A value given as a limit tells only on which side of the number the result lay.

Results on 7 compounds are retold here after ChEMBL document CHEMBL5149994, “Anticancer potential of indirubins in medicinal chemistry: Biological activity, structural modification, and structure-activity relationship” (Eur J Med Chem, 2021).

A short description of assay [1]: Antiproliferative activity against human TT cells assessed as cell growth inhibition measured after 72 hrs by EZ-CyTox reagent based analysis. In kind it is functional.
Assay [2] can be described thus: Antitumor activity against human TT cells xenografted in BALB/c nu/nu mouse assessed as reduction in tumour weight at 40 mg/kg per day, po administered via oral gavage daily measured after 21 days relative to control. Type of assay: functional. Set-up: scale not given: the % may be the effect or the level left. As to conditions: time 21 day. For orientation: Xenograft models place foreign cells or tissue in a host animal.

The subject of another assay is K-562R. Briefly: Antiproliferative activity against imatinib-resistant human K-562R cells assessed as cell growth inhibition measured after 72 hrs by MTT assay. In kind it is functional, cell-based. For orientation: Formazan colour is commonly taken as a measure of viable cells.
For the next assay, the system named is K562. Put plainly: Antitumor activity against human K562 cells xenografted in BALB/c mouse assessed as reduction in tumour volume at 6 mg/kg, ip treated every other day for 2 weeks relative to control. Type of assay: functional. Set-up: scale not given: the % may be the effect or the level left.
Assay [3] deals with MV4-11. Briefly: Antiproliferative activity against human MV4-11 cells assessed as cell growth inhibition. Type of assay: functional.
The subject of a further assay is PC-3. Briefly: Antiproliferative activity against human PC-3 cells assessed as cell growth inhibition. Type of assay: functional.
The subject of another assay is SNU-638. Briefly: Antiproliferative activity against human SNU-638 cells assessed as cell growth inhibition. In kind it is functional.
The test system of assay [4] is MV4-11. Briefly: Antitumor activity against human MV4-11 cells xenografted in mouse assessed as reduction in tumour volume at 10 mg/kg per day, iv measured after 21 days relative to control. Type of assay: functional. Set-up: scale not given: the % may be the effect or the level left. As to conditions: time 21 day.
Assay [5] in a line: Antitumor activity against human PDAC cells xenografted in BALB/c nu/nu mouse assessed as reduction in tumour weight at 40 mg/kg, ip treated every other day for 6 days relative to control. In kind it is functional. On the set-up: scale not given: the % may be the effect or the level left. As to conditions: time 6 day.
A further assay has as its system MeWo. Briefly: Antitumor activity against human MeWo cells xenografted in mouse assessed as reduction in tumour volume at 50 mg/kg per day, po administered via oral gavage measured after 14 days relative to control. Type of assay: functional. Set-up: scale not given: the % may be the effect or the level left. The note with it: time 14 day.
For assay [6], the target named is Proto-oncogene tyrosine-protein kinase Src (Homo sapiens, UniProt P12931). Briefly: Inhibition of c-SRC in human MDA-MB-468 cells in presence of [gamma-32P]ATP and ATP by immunoprecipitation method. In kind it is cell-based.
In another assay the test system is LXFL 529. Briefly: Antiproliferative activity against human LXFL 529 cells assessed as cell growth inhibition. In kind it is functional, cell-based.
A further assay has as its system HCT-116. Briefly: Antiproliferative activity against human HCT-116 cells assessed as cell growth inhibition. In kind it is functional, cell-based.
The target in assay [7] is Vascular endothelial growth factor receptor 2 (Homo sapiens, UniProt P35968). Put plainly: Inhibition of VEGFR2 (unknown origin).
Assay [8] has as its system CT26. Briefly: Antitumor activity against mouse CT26 cells in BALB/c mouse assessed as reduction in tumour volume at 200 mg/kg, ILES daily measured after 15 days relative to control. In kind it is functional. On the set-up: scale not given: the % may be the effect or the level left. As to conditions: time 15 day.
Assay [9] has as its system CT26. Briefly: Antitumor activity against mouse CT26 cells in BALB/c mouse assessed as reduction in tumour weight at 200 mg/kg, ILES daily measured after 15 days relative to control. Type of assay: functional. Set-up: scale not given: the % may be the effect or the level left. The note with it: time 15 day.
A further assay has as its system MCF7. Briefly: Antiproliferative activity against human MCF7 cells assessed as cell growth inhibition at 10 uM by crystal violet staining based assay relative to control. In kind it is functional. On the set-up: scale not given: the % may be the effect or the level left.
A short description of assay [10]: Antitumor activity against mouse 4T1-Luc cells xenografted in BALB/c mouse assessed as decrease in lung metastasis at 1 mg/kg, iv measured after 8 days […]. Type of assay: functional. On the set-up: scale not given: the % may be the effect or the level left. The note with it: time 8 day. Background: Reporter assays use an easily measured gene product as a stand-in for the process of interest.

For another assay, the system named is A2058. Put plainly: Antitumor activity against human A2058 cells xenografted in BALB/c mouse assessed as reduction in tumour volume at 50 mg/kg per day, po administered via oral gavage treated every other day for 14 days relative to control. The note with it: time 14 day. Type of assay: functional. On the set-up: scale not given: the % may be the effect or the level left.

Proto-oncogene tyrosine-protein kinase Src, sequence (P12931 2-536 limits assumed): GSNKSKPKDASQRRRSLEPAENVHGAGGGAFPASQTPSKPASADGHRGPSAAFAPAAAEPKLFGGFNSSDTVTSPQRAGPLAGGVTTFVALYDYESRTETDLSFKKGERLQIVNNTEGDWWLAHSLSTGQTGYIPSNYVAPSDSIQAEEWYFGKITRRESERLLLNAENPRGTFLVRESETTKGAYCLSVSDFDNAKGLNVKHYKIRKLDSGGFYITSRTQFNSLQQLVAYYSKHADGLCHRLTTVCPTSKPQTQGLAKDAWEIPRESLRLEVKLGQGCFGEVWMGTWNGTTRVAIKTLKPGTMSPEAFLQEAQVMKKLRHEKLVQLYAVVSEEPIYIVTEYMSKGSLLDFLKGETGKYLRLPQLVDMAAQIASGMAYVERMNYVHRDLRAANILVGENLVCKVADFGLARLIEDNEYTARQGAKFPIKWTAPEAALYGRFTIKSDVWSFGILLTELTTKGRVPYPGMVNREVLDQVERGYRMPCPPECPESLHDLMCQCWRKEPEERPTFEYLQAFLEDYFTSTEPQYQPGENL
Vascular endothelial growth factor receptor 2, sequence (P35968 whole entry): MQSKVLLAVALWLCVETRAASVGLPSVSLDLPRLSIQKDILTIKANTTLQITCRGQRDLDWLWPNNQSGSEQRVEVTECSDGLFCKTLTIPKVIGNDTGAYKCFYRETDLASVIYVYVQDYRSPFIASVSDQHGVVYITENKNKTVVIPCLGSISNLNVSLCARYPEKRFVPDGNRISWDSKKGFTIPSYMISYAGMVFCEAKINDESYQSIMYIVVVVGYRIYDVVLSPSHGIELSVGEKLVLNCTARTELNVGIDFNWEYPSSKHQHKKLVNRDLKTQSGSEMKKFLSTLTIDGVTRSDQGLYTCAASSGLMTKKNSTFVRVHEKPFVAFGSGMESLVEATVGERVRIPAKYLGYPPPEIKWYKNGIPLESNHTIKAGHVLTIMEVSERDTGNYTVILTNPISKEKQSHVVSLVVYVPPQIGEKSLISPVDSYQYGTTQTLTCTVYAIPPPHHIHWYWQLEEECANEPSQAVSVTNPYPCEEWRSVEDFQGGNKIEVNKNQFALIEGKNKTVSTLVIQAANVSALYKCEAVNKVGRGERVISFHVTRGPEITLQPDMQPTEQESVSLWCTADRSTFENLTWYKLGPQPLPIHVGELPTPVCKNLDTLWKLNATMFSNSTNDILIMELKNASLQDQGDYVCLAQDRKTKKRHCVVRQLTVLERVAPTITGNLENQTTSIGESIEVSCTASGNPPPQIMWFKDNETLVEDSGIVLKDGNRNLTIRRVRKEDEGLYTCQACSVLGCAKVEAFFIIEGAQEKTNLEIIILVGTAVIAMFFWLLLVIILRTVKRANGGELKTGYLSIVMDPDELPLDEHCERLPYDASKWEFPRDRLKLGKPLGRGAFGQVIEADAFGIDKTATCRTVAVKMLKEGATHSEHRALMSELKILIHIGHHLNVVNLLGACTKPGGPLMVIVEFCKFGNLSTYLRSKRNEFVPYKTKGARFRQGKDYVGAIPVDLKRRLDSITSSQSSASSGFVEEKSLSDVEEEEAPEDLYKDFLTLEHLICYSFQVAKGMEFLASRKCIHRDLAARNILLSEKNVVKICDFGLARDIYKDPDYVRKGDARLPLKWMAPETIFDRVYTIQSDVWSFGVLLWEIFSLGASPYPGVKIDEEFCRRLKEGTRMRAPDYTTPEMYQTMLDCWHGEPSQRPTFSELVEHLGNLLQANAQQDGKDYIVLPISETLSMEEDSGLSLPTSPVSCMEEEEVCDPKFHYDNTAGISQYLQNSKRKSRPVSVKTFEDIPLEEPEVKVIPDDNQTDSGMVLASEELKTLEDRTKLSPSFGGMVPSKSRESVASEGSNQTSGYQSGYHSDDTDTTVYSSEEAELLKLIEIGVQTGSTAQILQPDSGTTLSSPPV

Take `Cl.O=C1Nc2ccccc2/C1=C1/Nc2ccccc2/C1=N\OCCN1CCNCC1`: in [1], the GI50 came out at 68200 nM. In addition, the Activity in [2] amounted to 62.5%.
Consider `O=C1Nc2ccc([N+](=O)[O-])cc2/C1=C1/Nc2ccc(O)cc2/C1=N\O`, for which the IC50 in the assay on K-562R turned out to be 783 nM. In addition, the Activity with K562 is 90%.
Consider `COC(=O)c1ccc2c(c1)/C(=C1/Nc3ccccc3/C1=N\OCCN1CCNCC1)C(=O)N2.Cl.Cl`, for which the GI50 in the assay with MV4-11 [3] worked out at 1.2 nM; in the assay on PC-3, 1100 nM; with SNU-638 it was 2250 nM. For the same compound, the Activity with MV4-11 [4] stood at 100%.
For `COc1ccc2c(c1)/C(=C1/Nc3ccccc3/C1=N\O)C(=O)N2`, the Activity in assay [5] is on record as 60%.
For `Cl.Cl.O=C1Nc2c(Br)cccc2/C1=C1/Nc2ccccc2/C1=N\OCCN1CCNCC1`, the Activity in the assay on MeWo worked out at 37%.
Take `O=C1Nc2ccccc2/C1=C1/Nc2ccccc2/C1=N\OCC(O)CO` (centres undefined): the IC50 was 950 nM in [6], 900 nM in the assay on LXFL 529, below 100 nM in the assay with HCT-116 and 950 nM in assay [7]. Moreover, the Activity with CT26 [8] was determined as 49.3%; in the assay on CT26 [9] it was 46.8%.
Regarding `O=C1Nc2cc(Br)ccc2/C1=C1/Nc2ccccc2/C1=N\O` [6BIO], the Activity in the assay with MCF7 amounted to 75%; in [10], 80%; with A2058, 80%.
